Earlier results in US20160354391A1, “USE IN SINGLE PILL/TABLET/CAPSULE OF MINOCYCLINE, FLUCONAZOLE AND ATORVASTATIN IN THE TREATMENT OF MULTIPLE SCLEROSIS” (priority 2014, published 2016).

Legend:
[1] = in vivo

Compound	elimination time [1]	patients who develop thyroid autoimmune diseases
C/C(O)=C(\C#N)C(=O)Nc1ccc(C(F)(F)F)cc1 [Teriflunomide]	up to 2 years	–
Alemtuzumab	–	approximately 40%
